The values below come from patent US20170112748A1, “N-ACYLPEPTIDE DERIVATIVES AND THEIR USES” (NeoStrata Company, Inc., priority 2012, published 2017).

What all share (type): in vivo, human
The nature of assay [1]: skin plump / skin thickness test after topical application, caliper measurement. The procedure: In one of the studies related to skin changes associated with aging, skin thickness was measured by micrometer calipers as follows.
The skin was grasped with a 2×6 cm metal hinge: the internal faces of which were coated with emery cloth to prevent slippage, and manually squeezed to threshold subject discomfort. Combined thickness of two whole-skin layers including thickness of the two hinge leaves was measured with micrometer calipers. Thickness of the two hinge leaves was subtracted to determine the actual thickness of two whole-skin layers. Triplicate measurements on treated sites were done and an average number was used for calculation of the skin thickness.
In other studies, test sites of skin 17 mm in diameter were used, the circular sites were marked with permanent ink. Intervening control sites were also 17 mm in diameter. Thickness of skin of all sites was measured directly by means of an electronic digital caliper. In this instance the jaws of the caliper were opened to 17 mm, applied with pressure to the skin sites and then closed to firm tightness. Thickness of skin was then read off the screen of the calipers. Measurements of all sites were made in triplicates. […]

Assay [2] can be described thus: topical treatment of chronic inflammation, erythema, eczema with thick scales and itch, clinical evaluation. Particulars: Example 10: subject, -NH2 0.3% and -OEt 0.5% (w/v) in WEP442. The source says:
The involved skin was divided into two lesions for testing. The subject topically applied twice daily to one lesion, N-Ac-L-Tyr-L-Tyr-L-Tyr-NH2 0.3% (w/v) in WEP442, pH 5.9 solution composition, prepared according to Example 2, and to second lesion, N-Ac-L-Tyr-L-Tyr-L-Tyr-OEt 0.5% (w/v) in WEP 442, pH 6.0, prepared according to Example 2. […] The treated skin had 90-95% improvement as judged by clinical evaluation.

Assay [3] can be described thus: appetite for food after topical application on forehead. Particulars: Example 12: subject, 0.3% (w/v) in WEP442 once on forehead one hour before dinner. The procedure:
A subject, having normal and regular eating habit, topically applied once N-Ac-L-Tyr-L-Tyr-L-Tyr-NH2, 0.3% (w/v) in WEP442, pH 5.9 prepared according to Example 2 on their forehead one hour before the regular dinner time. After about 50-60 minutes of the topical application, the subject strated to feel loss of appetite for food.

The nature of assay [4]: topical treatment of plaque psoriasis, clinical evaluation. The following applies: Example 13: subject, 0.2% (w/w) in cream twice daily, 3 weeks. The source says: A subject, having plaque psoriasis, topically applied twice daily N-Ac-L-Tyr-L-Tyr-L-Tyr-NH2 0.2% (w/w) in cream to plaque lesions for 3 weeks. The treated lesions started to improve after a few days of topical application. […] The treated lesions had 40-50% improvement as judged by clinical evaluation.

Assay [5] is described as follows: topical treatment of bilateral inter-metacarpal atrophy of hands. Particulars: Example 23: subject, 1% (w/v) in WEP442 twice daily after the first course. The source says:
A subject had bilateral inter-metacarpal atrophy of both hands with certain restrictions of hand movements. The subject topically applied two to three times daily N-Ac-L-Tyr-L-Tyr-L-Tyr-OEt, 2% (w/v) in EP73 on the back of their left hand, and vehicle control EP73 on the back of their right hand for three weeks.
The subject now, topically applied twice daily N-Ac-L-Tyr-L-Tyr-L-Tyr-NH2, 1% (w/v) in WEP442 on the back of their left hand as a mantenace therapy.

Assay [6] is described as follows: summary of test results in volunteer subjects, efficacy grades. Particulars: efficacy grade. The source says: Subject 1. Person had multiple red and itchy inflammation, dermatitis, or eczema lesions, which were resistant to conventional treatments including corticosteroids. Subject 2. Person had small red and itchy lesions which were resistant to topical corticosteroid treatment. Subject 3. Person had multiple red and itchy inflammation, dermatitis, or eczema lesions over the body for many years, which were resistant to conventional treatments including corticosteroids. Subject 4. Person had red and itchy inflammation, dermatitis, or eczema lesions for many years, which were resistant to topical corticosteroid treatment. Subject 5. Person had early stage of aging related skin changes on both forearms as indicated by age spots and wrinkled skin caused by solar damage. Subject 6. Person had age spots, keratoses and wrinkles on both forearms caused by intrinsic and extrinsic aging. Subject 7. Person had age spots, and wrinkles on both forearms caused by intrinsic and extrinsic aging. Subject 8. Person had osteoarthritis of both knees with inflammation and pain for more than 4 years, and had only mild transitory relief from conventional treatments. Subject 9. Person had sensitive skin with inflammatory lesions on the body. Subject 12. Person had dermatitis and inflammatory lesions on the left palm. Subject 14. Person had multiple age spots including lentigines and keratosis on their face. Subject 15. Person had psorisis Subject 16. Person had sensitive skin and eczema for more than 40 years
In another embodiment, the volunteer subject topically applied the test compositions containing N-acylpeptide derivatives of the present invention on involved skin or lesions once or twice daily for several weeks or until the involved lesions completely cleared and clinically changed to normal skin. As a control study, the subject also topically applied a vehicle control composition on the involved skin or lesions twice daily for the same period.
In yet another embodiment, the volunteer subject topically applied once or twice daily the test compositions containing N-acylpeptide derivatives of the present invention on the skin site above arthritic joints or painful muscles to provide therapeutic effects for the systemic disorders via topical administration.
(§1) In yet another embodiment, the volunteer subject injected intra-articularly into a knee joint a test composition containing a N-acylpeptide derivative of the present invention to improve and reduce arthritic inflammation and pain of the joint.
Some test results are summarized as follows.
DK: Disturbed keratinization AG: Aging related changes of skin, nail and hair DI: Deranged immune disorders and inflammation ND: Nerve disorders CA: Tumors and/or cancers

Assay [7] can be described thus: skin thickness after intradermal injection on the forearms. The following applies: Example 15: subject, intradermal 0.05 ml (0.5 mg) of 1% in water, after 8 days. The procedure: In other studies, test sites of skin 17 mm in diameter were used, the circular sites were marked with permanent ink. Intervening control sites were also 17 mm in diameter. Thickness of skin of all sites was measured directly by means of an electronic digital caliper. In this instance the jaws of the caliper were opened to 17 mm, applied with pressure to the skin sites and then closed to firm tightness. Thickness of skin was then read off the screen of the calipers. Measurements of all sites were made in triplicates.
A typical systemic administration by intradermal injection was carried out as follows. A subject, injected intradermally on the forearms the following N-acylpeptide derivative of the present invention:
(a). N-Ac-L-Tyr-L-Tyr-L-Tyr-OH, 0.05 ml (0.5 mg) of 1% in water, after 8 days, there was 10-20% increase in skin thickness of 6 mm size skin at the injection site: effective for aging skin. (b). N-Ac-L-Ala-L-Leu-L-Lys-L-His-L-Arg-NH2 (SEQ ID NO: 51), 0.05 ml (0.5 mg) of 1% in water. (c). N-Bz-L-Ala-L-Leu-L-Lys-L-His-L-Arg-NH2 (SEQ ID NO: 65), 0.05 ml (0.5 mg) of 1% in water. (d). N-Ac-(EEASPEAVAGVGFESK)-NH2 (SEQ ID NO: 126), 0.1 ml (0.4 mg) of 0.4% in water.

Assay [8] in a line: urination (diuretic effect) after topical application on forehead. Particulars: Example 17: subject, 0.2% in WEP442 on forehead, about one hour later; repeated next day with same result. An excerpt:
The subject then topically applied N-Ac-L-Tyr-L-Tyr-L-Tyr-OH, 0.2% in WEP442 on their forehead. […] The subject repeated the same procedure the next day, and obtained the same result.

Assay [9] is described as follows: knee osteoarthritis, intra-articular injections. Here is the method: A subject had severe osteoarthritis of both knees for more than four years. Prior therapy had included intra-articular injections of corticosteroids and hyaluronic acid as well as celecoxib (Celebrex) orally (200 mg) twice daily. Such therapy had provided only mild transitory relief of knee pain and edema, and edema of lower legs.
Intra-articular injections of 1% (w/v) N-Ac-L-Tyr-L-Tyr-L-Tyr-OH in water, 0.1 ml (1 mg) as prepared in Example 4 were administered to each knee. The pains in both knees disappeared about 20-30 minutes after the injections, and the relief of pains lasted for 24 hours. Edema and inflammation of the knees and lower legs had diminished for approximately the same 24 hour period. Repeat injections of the same composition were administered once a week for several weeks to provide continued relief of pain, edema and inflammation.
In another trial, intra-articular injections of 0.2% (w/v) N-Ac-L-Tyr-L-Tyr-L-Tyr-OEt with 1% (w/v) methyl cellulose in water, 0.5 ml (1 mg) as prepared in Example 4 were also administered to each knee at different times. The pains in both knees disappeared about 20-30 minutes after the injections, and the relief of pains lasted for 24 hours. Edema and inflammation of the knees and lower legs had diminished for approximately the same 24 hour period.
A subject had osteoarthritis of both knees for more than four years. […] Intra-articular injections of each knee with N-Ac-L-Tyr-L-Tyr-L-Tyr-OH, 7-13 mg in aqueous solution had provided substantial relief of pain in the joints for 2-3 days.
as §1

The nature of assay [10]: anxiety, stress and mood disorders after topical application on forehead. The following applies: Example 16: subject, 0.2% in WEP442 on forehead, after two hours. An excerpt:
A subject had mild forms of anxiety, stress and mood disorders which provoked restlessness, lack of concentration, and mild depression. […] The subject then topically applied N-Ac-L-Val-L-Tyr-L-Tyr-NH2, 0.2% in WEP442 on their forehead.

Where [11] appears, read: Example 21: subject, sun damaged forearms, 1% (w/v) in WEP442 three times daily, one week.
Setting [12] is: Example 18: subject, intra-articular 1 mg each knee.

For N-Ac-L-Tyr-L-Tyr-L-Tyr-NH2, the “increase in skin thickness” value in assay [1] (Example 8: subject, severe photodamage, right wrist distal, 0.5% (w/v) in WEP721 three times daily, 7 days) was 5-10%. The substance also showed an increased skin thickness in assay [1] (Example 20: subject, photoaging forearms, 0.8% (w/v) in WEP442 three times daily, four weeks) of around 15%. The same substance showed an increased skin thickness in assay [1] (Example 20: subject, photoaging forearms, 1% (w/v) in WEP442 three times daily, four weeks) of around 28%. The substance also gave an increased skin thickness in assay [1] (setting [11]) of around 24%. The itch result in assay [2] was “stopped within a few minutes”. In [3], the “amount of food eaten at dinner” value is given as “only half the amount of food they usually would consume” and the “time after topical application until loss of appetite for food was felt” value lay within 50 to 60 min. Also, the “improvement of treated lesions as judged by clinical evaluation” value in assay [4] is 40-50%. Besides, the “inter-metacarpal atrophy of left hand, maintenance therapy” value in [5] is listed as “continued to improve with no signs of inter-metacarpal atrophy”. Moreover, in assay [6], the “AG: Aging related changes of skin, nail and hair” value (“AG: Aging related changes of skin” for short) is 4+ (4+: 95-100% Efficacy); the “DI: Deranged immune disorders and inflammation” value is reported as 4+ (4+: 95-100% Efficacy); the “DK: Disturbed keratinization” value was 4+ (4+: 95-100% Efficacy); the “ND: Nerve disorders” value is given as 4+ (4+: 95-100% Efficacy).
As to N-Ac-L-Tyr-L-Tyr-L-Tyr-OH, the increased skin thickness entry in assay [1] (setting [11]) is on record as “approximately 29%”. Moreover, in assay [7], the “increase in skin thickness of 6 mm size skin at the injection site” value was 10-20%. For the same substance, the urination entry in assay [8] is on record as “urge for urination”. In addition, in assay [9] (setting [12]), the “duration of relief of pains” value turned out to be 24 h; the “period of diminished edema and inflammation of the knees and lower legs” value is around 24 h. For the same substance, the “time after injection until pains in both knees disappeared” value in assay [9] (Example 18: subject, intra-articular 1 mg each knee (-OH 1% in water 0.1 ml; -OEt 0.2% with 1% methyl cellulose 0.5 ml)) was in the range of 20 to 30 min. The “duration of substantial relief of pain in the joints” value in assay [9] (Example 25: subject, intra-articular 7-13 mg in aqueous solution each knee) lay in the range of 2 to 3 days. In assay [6], the “AG: Aging related changes of skin” value is recorded as 2+ (2+: 50% Efficacy); the “DI: Deranged immune disorders and inflammation” value is 3+ (3+: 75% Efficacy); the “DK: Disturbed keratinization” value is on record as 2+ (2+: 50% Efficacy); the “ND: Nerve disorders” value was 3+ (3+: 75% Efficacy).
For N-Ac-L-Val-L-Tyr-L-Tyr-NH2, the “effect on anxiety, stress and mood disorders” value in assay [10] was “anxiety, stress and mood disorders started to disappear”. Moreover, in assay [6], the “AG: Aging related changes of skin” value is 3+ (3+: 75% Efficacy); the “DI: Deranged immune disorders and inflammation” value is 2+ (2+: 50% Efficacy); the “DK: Disturbed keratinization” value was 2+ (2+: 50% Efficacy); the “ND: Nerve disorders” value is reported as 4+ (4+: 95-100% Efficacy).
